Source: ChEMBL document CHEMBL1681655, “Identification of a new series of non-peptidic NK3 receptor antagonists” (Bioorg Med Chem Lett, 2011)

What was measured:
Neuromedin-K receptor = molecular target: T1, Neuromedin-K receptor (Homo sapiens, UniProt P29371); experiment: Displacement of [3H]Lu AE93103 from human NK3 receptor expressed in BHK cells; assay type: cell-based
T1 sequence (P29371 whole entry): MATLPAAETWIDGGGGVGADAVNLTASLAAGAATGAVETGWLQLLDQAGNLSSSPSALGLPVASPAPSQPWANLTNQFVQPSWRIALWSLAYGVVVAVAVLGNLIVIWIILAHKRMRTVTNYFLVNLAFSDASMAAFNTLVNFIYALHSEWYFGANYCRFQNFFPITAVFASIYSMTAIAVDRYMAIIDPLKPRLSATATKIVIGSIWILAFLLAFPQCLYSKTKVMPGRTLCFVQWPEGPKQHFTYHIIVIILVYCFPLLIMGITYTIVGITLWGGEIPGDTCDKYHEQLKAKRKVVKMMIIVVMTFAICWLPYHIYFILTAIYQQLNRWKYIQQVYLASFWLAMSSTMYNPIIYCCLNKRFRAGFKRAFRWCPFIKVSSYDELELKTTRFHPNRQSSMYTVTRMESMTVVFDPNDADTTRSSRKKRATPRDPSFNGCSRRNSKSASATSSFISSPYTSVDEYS

Substance-P receptor = Substance-P receptor (Homo sapiens, UniProt P25103); experiment: Displacement of [125I]SP from human cloned NK1 receptor
Substance-K receptor = molecular target: T2, Substance-K receptor (Homo sapiens, UniProt P21452); experiment: Displacement of [125I]NKA from human cloned NK2 receptor
T2 sequence (P21452 whole entry): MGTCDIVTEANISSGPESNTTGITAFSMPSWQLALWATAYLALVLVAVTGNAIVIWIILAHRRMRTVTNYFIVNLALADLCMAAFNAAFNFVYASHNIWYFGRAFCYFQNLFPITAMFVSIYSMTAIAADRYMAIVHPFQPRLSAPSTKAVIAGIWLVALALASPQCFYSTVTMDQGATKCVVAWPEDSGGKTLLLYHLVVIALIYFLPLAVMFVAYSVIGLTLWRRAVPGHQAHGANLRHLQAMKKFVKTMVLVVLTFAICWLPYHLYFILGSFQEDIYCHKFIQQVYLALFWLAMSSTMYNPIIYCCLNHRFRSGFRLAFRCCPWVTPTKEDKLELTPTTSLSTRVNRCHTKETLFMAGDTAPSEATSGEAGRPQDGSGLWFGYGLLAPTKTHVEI

Liver microsomes [1] = experiment: Intrinsic clearance in human liver microsomes; assay type: ADME, Microsome
[2] = Apparent permeability of the compound in human Caco2 cells; assay type: ADME, cell-based; details: caco-2
Caco-2 = experiment: Efflux ratio of permeability from […] in human Caco2 cells; assay type: ADME, cell-based
Liver microsomes [3] = experiment: Intrinsic clearance in rat liver microsomes; assay type: ADME, Microsome
[4] = Oral bioavailability in rat; assay type: ADME, organism-based; details: in vivo
Gerbillinae = experiment: Reversal of senktide-induced explorative behavior in sc dosed gerbils compound pretreated 60 mins before senktide induction by […] assay; assay type: functional
[5] = Ratio of drug level in brain to plasma in sc dosed gerbils after 90 mins; assay type: ADME, organism-based; details: gerbillinae, read-out: BPR
[6] = Clearance in rat; assay type: ADME, organism-based; details: in vivo

Chain of Substance-P receptor (P25103 whole entry): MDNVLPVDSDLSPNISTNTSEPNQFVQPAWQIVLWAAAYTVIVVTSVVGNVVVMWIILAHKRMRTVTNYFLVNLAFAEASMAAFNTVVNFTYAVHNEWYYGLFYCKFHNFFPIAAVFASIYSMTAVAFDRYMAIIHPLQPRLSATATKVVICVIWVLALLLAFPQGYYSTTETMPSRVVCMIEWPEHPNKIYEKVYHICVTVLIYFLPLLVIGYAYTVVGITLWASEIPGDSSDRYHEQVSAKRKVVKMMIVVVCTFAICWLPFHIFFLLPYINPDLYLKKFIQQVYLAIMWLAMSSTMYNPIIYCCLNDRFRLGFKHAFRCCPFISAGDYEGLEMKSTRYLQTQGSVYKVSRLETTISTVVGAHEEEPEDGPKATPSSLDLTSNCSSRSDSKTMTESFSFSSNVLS

Compound | Ki (Neuromedin-K receptor) | CL (Liver microsomes [1]) | Papp [2] | Ratio (Caco-2) | other results
CC(=O)NC1(c2ccccc2)CCN(C[C@@H]2C[C@@]2(C(=O)N(C)Cc2ccccc2)c2ccc(Cl)c(Cl)c2)CC1 | 5.9 nM | 3.5 L/min | 5.6 ×10⁻⁶ cm/s | 2.6 | Ki (Substance-P receptor): 130 nM; Ki (Substance-K receptor): 88 nM
CC(=O)N(C)C1(c2ccccc2)CCN(C[C@@H]2C[C@@]2(C(=O)N(C)Cc2ccccc2)c2ccc(Cl)c(Cl)c2)CC1 | 4.2 nM | 19 L/min | 0.8 ×10⁻⁶ cm/s | 12 | –
CN(Cc1ccccc1)C(=O)[C@@]1(c2ccc(Cl)c(Cl)c2)C[C@H]1CN1CCC(C(=O)N2CCCCC2)(c2ccccc2)CC1 | 6.1 nM | > 20 L/min | 0.3 ×10⁻⁶ cm/s | 17 | –
COC(=O)NC1(c2ccccc2)CCN(C[C@@H]2C[C@@]2(C(=O)N(C)Cc2ccccc2)c2ccc(Cl)c(Cl)c2)CC1 | 1.5 nM | 6.3 L/min | 0.4 ×10⁻⁶ cm/s | > 100 | –
CN(C)C(=O)NC1(c2ccccc2)CCN(C[C@@H]2C[C@@]2(C(=O)N(C)Cc2ccccc2)c2ccc(Cl)c(Cl)c2)CC1 | 2.8 nM | > 20 L/min | – | – | –
CNC(=O)NC1(c2ccccc2)CCN(C[C@@H]2C[C@@]2(C(=O)N(C)Cc2ccccc2)c2ccc(Cl)c(Cl)c2)CC1 | 5.6 nM | 6.8 L/min | 0.6 ×10⁻⁶ cm/s | 42 | –
CN(Cc1ccccc1)C(=O)[C@@]1(c2ccc(Cl)c(Cl)c2)C[C@H]1CN1CCC(NC(N)=O)(c2ccccc2)CC1 | 12 nM | 2 L/min | 0.6 ×10⁻⁶ cm/s | 85 | –
CN(Cc1ccccc1)C(=O)[C@@]1(c2ccc(Cl)c(Cl)c2)C[C@H]1CN1CCC(c2ccccc2)(N(C)C(=O)C(N)=O)CC1 | 3.6 nM | 6.9 L/min | 1.3 ×10⁻⁶ cm/s | 13 | –
CN(Cc1ccccc1)C(=O)[C@@]1(c2ccc(Cl)c(Cl)c2)C[C@H]1CN1CCC(NS(C)(=O)=O)(c2ccccc2)CC1 | 7.8 nM | 15 L/min | 0.1 ×10⁻⁶ cm/s | 120 | –
CN(Cc1ccc(F)cc1)C(=O)[C@@]1(c2ccc(Cl)c(Cl)c2)C[C@H]1CN1CCN(C(=O)CN2CCOCC2)CC1 | 3.3 nM | 16 L/min | 35 ×10⁻⁶ cm/s | 1.5 | –
CN(Cc1ccc(F)cc1)C(=O)[C@@]1(c2ccc(Cl)c(Cl)c2)C[C@H]1CN1CCN(CCN2CCOCC2)CC1 | 3.7 nM | 4.3 L/min | – | – | –
CN(Cc1ccc(F)cc1)C(=O)[C@@]1(c2ccc(Cl)c(Cl)c2)C[C@H]1CN1CCN(CC(=O)N2CCCC2)CC1 | 1.8 nM | 12 L/min | 27 ×10⁻⁶ cm/s | 1.3 | –
CN(C)C(=O)CCN1CCN(C[C@@H]2C[C@@]2(C(=O)N(C)Cc2ccc(F)cc2)c2ccc(Cl)c(Cl)c2)CC1 | 17 nM | 8.5 L/min | 28 ×10⁻⁶ cm/s | 1.1 | –
CN(Cc1ccc(F)cc1)C(=O)[C@@]1(c2ccc(Cl)c(Cl)c2)C[C@H]1CN1CCN(C(=O)CN2CCCCC2)CC1 | 7.3 nM | 10 L/min | 2.9 ×10⁻⁶ cm/s | 4.2 | –
CN(Cc1ccc(F)cc1)C(=O)[C@@]1(c2ccc(Cl)c(Cl)c2)C[C@H]1CN1CCN(C(=O)CN2CCCC2)CC1 | 12 nM | 5.6 L/min | 5.7 ×10⁻⁶ cm/s | 3.5 | –
CN(Cc1ccc(F)cc1)C(=O)[C@@]1(c2ccc(Cl)c(Cl)c2)C[C@H]1CN1CCN(S(=O)(=O)N(C)C)CC1 | 7.6 nM | > 20 L/min | 25 ×10⁻⁶ cm/s | 1.5 | Ki (Substance-P receptor): 340 nM; Ki (Substance-K receptor): 75 nM; CL (Liver microsomes [3]): 210 mL/min; bioavailability [4]: < 5%; ED50 (Gerbillinae): 14.2 mg/kg; Kp at 1.5 h [5]: 1.9; clearance [6]: 108 mL/min/kg
CN(Cc1ccc(F)cc1)C(=O)[C@@]1(c2ccc(Cl)c(Cl)c2)C[C@H]1CN1CCN(S(=O)(=O)N2CCCC2)CC1 | 5.8 nM | > 20 L/min | – | – | –
CN(Cc1ccc(F)cc1)C(=O)[C@@]1(c2ccc(Cl)c(Cl)c2)C[C@H]1CN1CCN(C(=O)CN2CCCCCC2)CC1 | 8.7 nM | 15 L/min | – | – | –

Compound | Ki (Neuromedin-K receptor) | CL (Liver microsomes [1]) | Papp [2] | Ratio (Caco-2) | other results
CN(Cc1ccc(F)cc1)C(=O)[C@@]1(c2ccc(Cl)c(Cl)c2)C[C@H]1CN1CC(N2CCN(S(=O)(=O)N(C)C)CC2)C1 | 1.9 nM | 12 L/min | – | – | –
CCCNC[C@@H]1C[C@@]1(C(=O)N(C)Cc1ccc(F)cc1)c1ccc(Cl)c(Cl)c1 | 150 nM | 0.9 L/min | 5.4 ×10⁻⁶ cm/s | 2.7 | –
CC(C)NC[C@@H]1C[C@@]1(C(=O)N(C)Cc1ccc(F)cc1)c1ccc(Cl)c(Cl)c1 | 140 nM | 0.9 L/min | 11 ×10⁻⁶ cm/s | 1.5 | –
CC(=O)NC1(c2ccccc2)CCN(CC2CC2(C(=O)N(C)Cc2ccc(C)cc2)c2ccc(Cl)c(Cl)c2)CC1 (racemic) | 7.5 nM | – | – | – | –
CC(=O)NC1(c2ccccc2)CCN(CC2CC2(C(=O)N(C)Cc2ccc(Cl)cc2)c2ccc(Cl)c(Cl)c2)CC1 (racemic) | 11 nM | – | – | – | –
COc1ccc(CN(C)C(=O)C2(c3ccc(Cl)c(Cl)c3)CC2CN2CCC(NC(C)=O)(c3ccccc3)CC2)cc1 (racemic) | 15 nM | – | – | – | –
CC(=O)NC1(c2ccccc2)CCN(CC2CC2(C(=O)N(C)Cc2ccc(C(F)(F)F)cc2)c2ccc(Cl)c(Cl)c2)CC1 (racemic) | 4.6 nM | – | – | – | –
CSc1ccc(CN(C)C(=O)C2(c3ccc(Cl)c(Cl)c3)CC2CN2CCC(NC(C)=O)(c3ccccc3)CC2)cc1 (racemic) | 28 nM | – | – | – | –
CC(=O)NC1(c2ccccc2)CCN(CC2CC2(C(=O)N(C)Cc2cccc(Cl)c2Cl)c2ccc(Cl)c(Cl)c2)CC1 (racemic) | 24 nM | – | – | – | –
CC(=O)NC1(c2ccccc2)CCN(CC2CC2(C(=O)N(C)Cc2ccc(Cl)cc2Cl)c2ccc(Cl)c(Cl)c2)CC1 (racemic) | 16 nM | – | – | – | –
CC(=O)NC1(c2ccccc2)CCN(CC2CC2(C(=O)N(C)Cc2ccc(Cl)c(Cl)c2)c2ccc(Cl)c(Cl)c2)CC1 (racemic) | 13 nM | – | – | – | –
CC(=O)NC1(c2ccccc2)CCN(CC2CC2(C(=O)N(C)Cc2cc(Cl)cc(Cl)c2)c2ccc(Cl)c(Cl)c2)CC1 (racemic) | 23 nM | – | – | – | –
COc1ccc(CN(C)C(=O)C2(c3ccc(Cl)c(Cl)c3)CC2CN2CCC(NC(C)=O)(c3ccccc3)CC2)c(OC)c1 (racemic) | 5.9 nM | – | – | – | –
COc1ccc(CN(C)C(=O)C2(c3ccc(Cl)c(Cl)c3)CC2CN2CCC(NC(C)=O)(c3ccccc3)CC2)cc1OC (racemic) | 67 nM | – | – | – | –
COc1cc(CN(C)C(=O)C2(c3ccc(Cl)c(Cl)c3)CC2CN2CCC(NC(C)=O)(c3ccccc3)CC2)cc(OC)c1 (racemic) | 32 nM | – | – | – | –
CC(=O)NC1(c2ccccc2)CCN(CC2CC2(C(=O)N(C)Cc2cccs2)c2ccc(Cl)c(Cl)c2)CC1 (racemic) | 70 nM | – | – | – | –
CC(=O)NC1(c2ccccc2)CCN(CC2CC2(C(=O)N(C)Cc2ccsc2)c2ccc(Cl)c(Cl)c2)CC1 (racemic) | 14 nM | – | – | – | –
